Consider 17 compounds from article PMC9977057, “Indenyl-thiazole and indenyl-formazan derivatives: Synthesis, anticancer screening studies, molecular-docking, and pharmacokinetic/ molin-spiration properties” (PLOS ONE, 2023).

For data set [1], the system named is COLO205 cells (colon cancer). Description: SRB cytotoxicity assay, colon cancer cells COLO205. Type of data set: cell-based. The method, then:
(§1) A- Cell culture. The cells were obtained from the Egyptian Holding Company for Biological Products & Vaccines (VACSERA), Giza, Egypt, then maintained in the tissue culture unit. […] The cells were maintained as monolayer culture by serial sub‐culturing. Cell culture reagents were obtained from Lonza (Basel, Switzerland).
(§2) Sulforhodamine B(SRB) assay method was used to evaluate cytotoxicity. […] After 24 h, cells were incubated for 72 h with various concentrations of the tested compounds. Following 72 h treatments, the cells would be fixed with 10% trichloroacetic acid for 1 h at 4°C. Wells were stained for 10 minutes at room temperature with 0.4% SRBC (Sulphorhodamine B) dissolved in 1% acetic acid. After that, the plates were air-dried for 24 h. At the same time, the dye was dissolved in Tris‐HCl and left for 5 min on the shaker at 1600 rpm. Each well’s optical density (OD) was measured spectrophotometrically at 564 nm; by using an ELISA microplate reader (ChroMate‐4300, FL, USA). The IC50 values were calculated according to the equation for Boltzman sigmoidal concentration-response curve using the nonlinear regression fitting models (Graph Pad, Prism Version 9).
In general terms: The SRB assay estimates cell density from bound dye.

In data set [2] the test system is normal cell. Description: Cytotoxicity on a normal cell (for selectivity index). Type of data set: cell-based. Conditions: for IC50: column head names no cell, normal cell according to b79; for SI (selectivity index): ratio IC50 on normal cell / IC50 on cancer cell line. The procedure:
Sulforhodamine B(SRB) assay method was used to evaluate cytotoxicity. Exponentially growing cells were collected using 0.25% Trypsin‐EDTA seeded in 96‐well plates at 1000‐2000 cells/well in RBMI‐1640 supplemented medium. After 24 h, cells were incubated for 72 h with various concentrations of the tested compounds. Following 72 h treatments, the cells would be fixed with 10% trichloroacetic acid for 1 h at 4°C. Wells were stained for 10 minutes at room temperature with 0.4% SRBC (Sulphorhodamine B) dissolved in 1% acetic acid. After that, the plates were air-dried for 24 h. At the same time, the dye was dissolved in Tris‐HCl and left for 5 min on the shaker at 1600 rpm. Each well’s optical density (OD) was measured spectrophotometrically at 564 nm; by using an ELISA microplate reader (ChroMate‐4300, FL, USA). The IC50 values were calculated according to the equation for Boltzman sigmoidal concentration-response curve using the nonlinear regression fitting models (Graph Pad, Prism Version 9).
The compounds show good selectivity toward cancerous cells, represented by the “selectivity index.” The selectivity index was previously used to measure selective cytotoxic activity. The selectivity index (SI) can be calculated from the ratio between IC50 of the compound on a normal cell and the compound on a cancer cell line. For example, the SI of compounds 6d, 10a, 10d, and 16 are 86.98, 76.82, 74.32, and 54.13, respectively.

Data set [3] concerns Gastric (SNU-16) Patch number (ATCC CRL-5822). Description: SRB cytotoxicity assay, gastric cancer cells SNU-16. Type of data set: cell-based. The procedure:
as §1, §2

[4] abbreviates: Homo sapiens, COLO 205, 72 h incubation.
Where [5] appears, read: Homo sapiens, SNU-16, 72 h incubation.

For orientation: melting point means the temperature, or range, at which the solid turns liquid. By IC50 is commonly meant the concentration needed to halve the response being measured. A high value points to weaker potency. Compound `Cc1nc(N/N=C2\CCc3cc(Br)ccc32)sc1/N=N/c1ccccc1` [6a, 2-(2h4(5-Bromo-2,3-dihydro-1H-inden-1-ylidene)hydrazineyl)-4-methyl-5-(phenyldiazenyl)-thiazole] had a melting point of 220 to 222 °C. The compound also registered an IC50 in data set [1] (setting [4]) of 17.14 ± 0.12 µM. In addition, the IC50 in data set [2] was over 100 µM. In data set [3] (setting [5]), this compound gave an IC50 of 21.79 ± 0.076 µM.
The compound `Cc1cccc(N=Nc2sc(NN=C3CCc4cc(Br)ccc43)nc2C)c1` [6b, 2-(2-(5-Bromo-2,3-dihydro-1H-inden-1-ylidene)hydrazineyl)-4-methyl-5-(m-tolyldiazenyl)-thiazole] gave a melting point of 128 to 129 °C. In addition, half-maximal inhibition in data set [1] (setting [4]) (IC50) was put at 9.813 ± 0.005 µM. Besides, in data set [2], the IC50 is over 100 µM. Besides, the IC50 in data set [3] (setting [5]) is 12.28 ± 0.03 µM.
With `Cc1ccc(N=Nc2sc(NN=C3CCc4cc(Br)ccc43)nc2C)cc1` [6c, 2-(2-(5-Bromo-2,3-dihydro-1H-inden-1-ylidene)hydrazineyl)-4-methyl-5-(p-tolyldiazenyl)thiazole], the melting point was 130 to 132 °C. For the same compound, half-maximal inhibition in data set [1] (setting [4]) (IC50) required 7.576 ± 0.07 µM. Also, the IC50 in data set [2] was over 100 µM. Besides, in data set [3] (setting [5]), the IC50 is 12.89 ± 0.076 µM.
Consider `Cc1nc(NN=C2CCc3cc(Br)ccc32)sc1N=Nc1cccc(Cl)c1` [6d, 2-(2-(5-Bromo-2,3-dihydro-1H-inden-1-ylidene)hydrazineyl)-5-((3-chlorophenyl)-diazenyl)-4-methylthiazole], for which the IC50 in data set [1] (setting [4]) was 6.958 ± 0.04 µM; in data set [2] it was 605 ± 35.2 µM; in data set [3] (setting [5]), 19.79 ± 0.129 µM. Besides, in data set [2], the “SI (selectivity index)” value is given as 86.98.
For `Cc1nc(NN=C2CCc3cc(Br)ccc32)sc1N=Nc1ccc(Cl)cc1` [6e, 2-(2-(5-Bromo-2,3-dihydro-1H-inden-1-ylidene)hydrazineyl)-5-((4-chlorophenyl)diazenyl)-4-methylthiazole], the melting point was in the range of 177 to 178 °C. The IC50 in data set [1] (setting [4]) amounted to 7.276 ± 0.03 µM. The IC50 in data set [2] was over 100 µM. The same compound showed an IC50 in data set [3] (setting [5]) of 26.19 ± 0.12 µM.
Take `Brc1ccc2c(c1)CCC2=NNc1nc(-c2ccccc2)cs1` [10a, N-(5-Bromo-indan-1-ylidene)-N’-(4-phenyl-thiazol-2-yl)-hydrazine]: the results for the IC50 in data set [1] (setting [4]), in data set [2] and in data set [3] (setting [5]) were 6.301 ± 0.008 µM, 485 ± 7.89 µM and 20 ± 0.64 µM, respectively. Besides, in data set [2], the “SI (selectivity index)” value turned out to be 76.82.
In turn, `Cc1ccc(-c2csc(NN=C3CCc4cc(Br)ccc43)n2)cc1` [10b, N-(5-Bromo-indan-1-ylidene)-N’-(4-p-tolyl-thiazol-2-yl)-hydrazine] came in with a melting point of 233 to 234 °C. In data set [1] (setting [4]), the IC50 is 12.08 ± 0.006 µM. Further, in data set [2], the IC50 is over 100 µM. The IC50 in data set [3] (setting [5]) is 18.3 ± 0.39 µM.
`Brc1ccc(-c2csc(NN=C3CCc4cc(Br)ccc43)n2)cc1` [10c, N-(5-Bromo-indan-1-ylidene)-N’-[4-(4-bromo-phenyl)-thiazol-2-yl]-hydrazine]: the melting point was 230 to 232 °C. In addition, it took 13.81 ± 0.025 µM to reach half-maximal inhibition in data set [1] (setting [4]) (IC50). This compound also gave an IC50 in data set [2] of over 100 µM. This compound also yielded an IC50 in data set [3] (setting [5]) of 26.8 ± 0.6 µM.
Consider `Clc1ccc(-c2csc(NN=C3CCc4cc(Br)ccc43)n2)cc1` [10d, N-(5-Bromo-indan-1-ylidene)-N’-[4-(4-chloro-phenyl)-thiazol-2-yl]-hydrazine], for which the IC50 in data set [1] (setting [4]) worked out at 12.16 ± 0.06 µM; in data set [2], 563 ± 44.2 µM; in data set [3] (setting [5]), 7.576 ± 0.075 µM. Also, the “SI (selectivity index)” value in data set [2] was 74.32.
`CC(=O)C(=NNc1ccccc1)NN=C1CCc2cc(Br)ccc21` [14a, N’-(5-bromo-2,3-dihydro-1H-inden-1-ylidene)-2-oxo-N’’-phenylpropanehydrazonhydrazide] returned a melting point of 190 °C. Besides, the IC50 in data set [1] (setting [4]) was 11.27 ± 0.046 µM. In data set [2], this compound registered an IC50 of over 100 µM. In addition, it took 14.9 ± 0.3 µM to reach half-maximal inhibition in data set [3] (setting [5]) (IC50).
Consider `CC(=O)/C(=N\Nc1ccc(Cl)cc1)N/N=C1\CCc2cc(Br)ccc21` [14b, N’-(5-bromo-2,3-dihydro-1H-inden-1-ylidene)-N’’-(4-chlorophenyl)-2-oxopropanehydrazon-hydrazide], for which the melting point lay within 197 to 198 °C. In data set [1] (setting [4]), this compound gave an IC50 of 10.61 ± 0.09 µM. Also, the IC50 in data set [2] was over 100 µM. Also, the 50% inhibitory concentration (IC50) in data set [3] (setting [5]) was found to be 13.8 ± 0.69 µM.
Consider `N.N.[Cl][Pt][Cl]` [Cisplatin, reference compound], for which the IC50 came to 9.13 ± 0.07 µM in data set [1] (72 h incubation), 548 ± 61.2 µM in data set [2] and 11.27 ± 0.076 µM in data set [3] (72 h incubation).
Compound `NC(=S)NN=C1CCc2cc(Br)ccc21` [compound 3, 2-(5-Bromo-2,3-dihydro-1H-inden-1-ylidene)hydrazine-1-carbothioamide] showed a melting point of 227 to 230 °C. Also, the IC50 in data set [1] (setting [4]) amounted to 14.1 ± 0.04 µM. The IC50 in data set [2] is over 100 µM. In data set [3] (setting [5]), this compound gave an IC50 of 19.01 ± 0.133 µM.
For `NN=C1CCc2cc(Br)ccc21` [compound 4, (5-Bromo-indan-1-ylidene)-hydrazine], in that order: 120 °C, 8.167 ± 0.07 µM, over 100 µM and 23.2 ± 0.204 µM.
The compound `CCOC(=O)C(=NNc1ccccc1)NN=C1CCc2cc(Br)ccc21` [compound 15, Ethyl 2-(2-(5-bromo-2,3-dihydro-1H-inden-1-ylidene)hydrazineyl)-2-(2-phenyl-hydrazineylidene)acetate] showed a melting point of 174 to 176 °C. In data set [1] (setting [4]), inhibition was half-maximal at 13.63 ± 0.04 µM (IC50). Besides, in data set [2], the IC50 was over 100 µM. The compound also registered an IC50 in data set [3] (setting [5]) of 16.6 ± 0.38 µM.
Regarding `O=C(Nc1ccccc1)C(=NNc1ccccc1)NN=C1CCc2cc(Br)ccc21` [compound 16, 2-(2-(5-Bromo-2,3-dihydro-1H-inden-1-ylidene)hydrazineyl)-N-phenyl-2-(2-phenyl-hydrazineylidene)acetamide], the IC50 in data set [1] (setting [4]) worked out at 13.04 ± 0.025 µM; in data set [2], 525 ± 36.2 µM; in data set [3] (setting [5]), 9.699 ± 0.0726 µM. Further, the “SI (selectivity index)” value in data set [2] worked out at 54.13.
In the case of `CCN(CC)CCNC(=O)c1c(C)[nH]c(/C=C2\C(=O)Nc3ccc(F)cc32)c1C` [sunitinib, reference compound], the half-inhibitory concentration (IC50) was found to be 11.27 ± 0.033 µM in data set [1] (setting [4]), 378 ± 31.8 µM in data set [2] and 8.45 ± 0.023 µM in data set [3] (setting [5]).
